Results from ChEMBL document CHEMBL1147709, “Arylanthranilodinitriles: a new biaryl class of antileishmanial agents” (2006).

Tests used:
Format in all cases: functional
Leishmania donovani [1] = assay: Antileishmanial activity against Leishmania donovani promastigotes at 4 ug/ml
Leishmania donovani [2] = assay: Antileishmanial activity against Leishmania donovani promastigotes at 8 ug/ml
Leishmania donovani [3] = assay: Antileishmanial activity against Leishmania donovani amastigotes at 20 ug/ml
Leishmania donovani [4] = assay: Antileishmanial activity against Leishmania donovani promastigotes at 2 ug/ml

Row | Compound | inhibition at 4 µg/mL (Leishmania donovani [1]) | inhibition at 8 µg/mL (Leishmania donovani [2]) | inhibition at 20 µg/mL (Leishmania donovani [3]) | inhibition at 2 µg/mL (Leishmania donovani [4])
1 | COc1ccc(-c2c(C)c(C#N)c(N)c(C#N)c2SC)cc1OC | 60% | 69% | 53% | 
2 | CSc1c(C)c(-c2ccc(Cl)cc2)c(C#N)c(N)c1C#N | 46% | 50% | 10% | 
3 | CSc1c(C#N)c(N)c(C#N)c(C)c1-c1ccc(F)cc1 | 43% | 65% | 62% | 
4 | CSc1c(C)c(-c2ccccc2)c(C#N)c(N)c1C#N | 25% | 48% | 23% | 
5 | CSc1c(C#N)c(N)c(C#N)c(C)c1-c1ccccc1F | 37% | 60% | 61% | 
6 | COc1ccc(-c2c(C)c(C#N)c(N)c(C#N)c2SC)c(OC)c1 | 36% | 59% | 56% | 
7 | COc1ccc(-c2c(C)c(SC)c(C#N)c(N)c2C#N)cc1 | 31% | 53% | 25% | 
8 | CSc1c(C#N)c(N)c(C#N)c(C)c1-c1ccc(C(F)(F)F)cc1 | 67% | 83% | 70% | 
9 | N=C(N)c1ccc(OCCCCCOc2ccc(C(=N)N)cc2)cc1 [PENTAMIDINE] |  |  | 48% | 71%
